# Assay results as given in the OligoGym collection.
# These antisense oligonucleotides have a phosphorothioate backbone; sugars and methylation of C are not fully specified.
# Biological target: AKT2
# Conditions: ASO
# Also: test concentration or dose not given here.
row,Sequence,remaining target (mRNA or protein) (fraction of control)
1,CTACGGAGAAGTTGTTTA,0.42
2,CTCCTTGGCATCGCTGGG,0.29
3,CTTGAGGCTGTTGGCGAC,0.18
4,CTTTGATGACAGACACCT,0.23
5,GAGCCACACTTGTAGTCC,0.11
6,GAGGCACCGTGGACAGGG,0.33
7,GATGGACTGGGCGGTAAA,0.22
8,GCCTTGCTGACCGCCACT,0.18
9,GGGTGCCTGGTGTTCTGG,0.3
10,GTCTTGATGTATTCACCA,0.52
11,GTGAGCGACTTCATCCTT,0.25
12,GTGATGGCAGCGAGCGTG,0.38
13,TCGGTGACTGTGTGAGCG,0.34
14,TGACAGACACCTCATTCA,0.15
15,TGGACAGGGCACAGTCTC,0.3
16,TGGCATTCTGCTACGGAG,0.18
17,TGGTCACTTTAGCCCGTG,≥ 1
18,TGTGATTGTGATGGACTG,0.3
19,TGTGGAGCCAGCCTTCTT,0.28
20,TTCCATCTCCTCAGTCGT,0.19

# Biological target: NSMAF
# Conditions: ASO
row,Sequence,remaining target (mRNA or protein) (fraction of control)
1,AATCTCTCCTTGGAGTAG,0.61
2,ACTCGTGAAGGTGTTCAG,0.34
3,AGATCCCGGAAGGTTCCT,0.22
4,ATACAGTCTCTCAAAGGA,0.73
5,ATCTGCCATAGAAGCATT,0.56
6,ATCTGTCCTCCTTGTCTC,0.47
7,CACAGCATATACTCTGGT,0.35
8,CATTTTATCTGCCCTAAG,0.56
9,CCTCCTTCATAGGTCAGG,0.74
10,CCTTTCTATTTTATATGG,0.74
11,CGAGACTGCAAAATAGCT,0.32
12,CTCTTCTGGAGAAAGTCC,0.67
13,CTGCAGCATGTAGCTCTC,0.83
14,CTTCAGGCTATTGACTAG,0.46
15,GACTCCCATACATGAACT,0.51
16,GAGTGTTATCTGGACCAC,0.28
17,GCATGGCTACCTTCTCAT,0.15
18,GCCGTGCCTCCTTTTGTA,0.47

row,Sequence,remaining target (mRNA or protein) (fraction of control)
1,GGCTCTATGCTGTTCAAA,0.39
2,GGCTGGGATATTGAATCT,0.72
3,GTCTCCACAACATCTTCC,0.86
4,GTGATTCCAGTAACTGCT,0.36
5,TACACTGACATCATGTTC,0.43
6,TATGACAGTGGCATCTCC,0.65
7,TCAAGGCAGGATGCTCTG,0.23
8,TGGAAACACAGGGTACTG,0.37
9,TGTCAGTAGTCTCTCCAG,0.25
10,TGTGTCCGTGATGCACAC,0.24
11,TGTGTGGCCCTGTATTCT,0.38
12,TGTTGAACATTCTATCTG,0.79
13,TTAAAATCCGTTGCACCA,0.55
14,TTCCATGTGCAGCTTTTC,0.34
15,TTTAGGTAGATGTCGGAA,0.52
16,TTTCCTTTCATGGTGACT,0.43
17,TTTGTGAAGTGTCTATTG,0.51

# Biological target: Agtr1a (rat)
# Conditions: ASO
row,Sequence,remaining target (mRNA or protein) (fraction of control)
1,AACAGAGGGTTCAGGCAGTT,0.29
2,AAGGGTATAGCTGGTGAGAAT,0.39
3,ACACGTGTGAAGGAACACAC,0.51
4,AGAAGAGTTAAGGGCCATTT,0.46
5,AGACACGTGTGAAGGAACAC,0.5
6,AGAGGGTTCAGGCAGTTGTT,0.3
7,AGCGTCGAATTCCGAGACTC,0.29
8,ATAGCTGGTGAGAATGATAAG,0.44
9,ATGCGGTCGATGCTGAGACA,0.75
10,CAGCAGAAGAGTTAAGGGCC,0.37

# Biological target: RAF1
# Conditions: ASO
row,Sequence,remaining target (mRNA or protein) (fraction of control)
1,ACCATCAACATCCACTTGCG,≥ 1
2,ATTCTTAAACCTGAGGGAGC,≥ 1
3,CAAGAAAACCTGTATTCCTG,≥ 1
4,CAGCACTGCAAATGGCTTCC,0.8
5,CCCTGTATGTGCTCCATTGA,0.38
6,CCTGCTGGCTTCTCCTCCTC,0.92
7,CGCTCCTCCTCCCCGCGGCG,0.35
8,CGGGAGGCGGTCACATTCGG,0.25
9,CTCGCCCGCTCCTCCTCCCC,≥ 1
10,CTGAGAGGGCTGAGATGCGG,≥ 1
11,CTGATTTCCAAAATCCCATG,0.26
12,CTGGCTTCTCCTCCTCCCCT,0.95
13,CTGGGCTGTTTGGTGCCTTA,0.8
14,GATGCAGCTTAAACAATTCT,0.99
15,GCCGAGTGCCTTGCCTGGAA,0.98
16,GCCGCCCCAACGTCCTGTCG,0.42
17,GCTCCATTGATGCAGCTTGA,0.63

row,Sequence,remaining target (mRNA or protein) (fraction of control)
1,GCTCCTGGAAGACAAAATTC,0.82
2,GGTGAGGGAGCGGGAGGCGG,0.98
3,GGTGCAAAGTCAACTAGAAG,0.88
4,GTCTGGCGCTGCACCACTCT,0.35
5,TCAGGGCTGGACTGCCTGCT,0.52
6,TCCCGCCTGTGACATGCATT,0.05
7,TCCTCCTCCCCGCGGCGGGT,0.95
8,TCTGGCGCTGCACCACTCTC,0.25
9,TGAAGGTGAGCTGGAGCCAT,≥ 1
10,TGTAGCCAACAGCTGGGGCT,0.96
11,TGTGACTAGAGAAACAAGGC,0.68
12,TTAAAATAACATAATTGAGG,0.93
13,TTCGGCGGCAGCTTCTCGCC,0.37
14,TTCTCCTCCTCCCCTGGCAG,0.8
15,TTCTCGCCCGCTCCTCCTCC,0.65
16,TTGAGCATGGGGAATGTGGG,0.63
17,TTGTCAGGTGCAATAAAAAC,0.88
